Reference: patent US9469617B2, “Molecules having certain pesticidal utilities, and intermediates, compositions, and processes related thereto” (priority 2014, dated 2016)

Columns and labels:
Assay type in all cases: in vivo
[1] = system: Beet Armyworm (BAW) (Spodoptera exigua); experiment: Bioassay on Beet Armyworm (BAW), 128-well diet tray assay; settings: 168 h, Table ABC, 50 μg/cm^2 on artificial diet, second instar larvae, five to seven days, 25° C., read-out: BAW % Control (or Mortality) rating
Description: (§1) Certain molecules disclosed in this document were tested against BAW and CL using procedures described in the following examples. In the reporting of the results, the “BAW & CL Rating Table” was used (See Table Section).
Bioassays on BAW were conducted using a 128-well diet tray assay. one to five second instar BAW larvae were placed in each well (3 mL) of the diet tray that had been previously filled with 1 mL of artificial diet to which 50 μg/cm^2 of the test compound (dissolved in 50 μL of 90:10 acetone-water mixture) had been applied (to each of eight wells) and then allowed to dry. Trays were covered with a clear self-adhesive cover, and held at 25° C., 14:10 light-dark for five to seven days. Percent mortality was recorded for the larvae in each well; activity in the eight wells was then averaged. The results are indicated in the tables entitled “Table ABC: Assay Results” and “Table ABCD: Assay Results” (See Table Section).

[2] = system: Cabbage Looper (CL) (Trichoplusia ni); experiment: Bioassay on Cabbage Looper (CL), 128-well diet tray assay; settings: 168 h, Table ABC, 50 μg/cm^2 on artificial diet, second instar larvae, five to seven days, 25° C., read-out: CL % Control (or Mortality) rating
Description: as §1
Bioassays on CL were conducted using a 128-well diet tray assay. One to five second instar CL larvae were placed in each well (3 mL) of the diet tray that had been previously filled with 1 mL of artificial diet to which 50 μg/cm^2 of the test compound (dissolved in 50 μL of 90:10 acetone-water mixture) had been applied (to each of eight wells) and then allowed to dry. Trays were covered with a clear self-adhesive cover, and held at 25° C., 14:10 light-dark for five to seven days. Percent mortality was recorded for the larvae in each well; activity in the eight wells was then averaged. The results are indicated in the table entitled “Table ABC: Assay Results” and “Table ABCD: Assay Results” (See Table Section).

[3] = system: Yellow Fever Mosquito (YFM) (Aedes aegypti); experiment: Bioassay on Yellow Fever Mosquito (YFM) larvae, 96-well plate; settings: Table ABC; about 1 day-old larvae, master plate 4000 ppm in DMSO diluted, scored on mortality after 3 days
Description: Certain molecules disclosed in this document were tested against YFM using procedures described in the following paragraph. In the reporting of the results, the “GPA & YFM Rating Table” was used (See Table Section).
Master plates containing 400 μg of a molecule dissolved in 100 μL of dimethyl sulfoxide (DMSO) (equivalent to a 4000 ppm solution) are used. A master plate of assembled molecules contains 15 μL per well. To this plate, 135 μL of a 90:10 water:acetone mixture is added to each well. A robot (Biomek® NXP Laboratory Automation Workstation) is programmed to dispense 15 μL aspirations from the master plate into an empty 96-well shallow plate (“daughter” plate). There are 6 reps (“daughter” plates) created per master. The created daughter plates are then immediately infested with YFM larvae.
The day before plates are to be treated, mosquito eggs are placed in Millipore water containing liver powder to begin hatching (4 g. into 400 mL). After the daughter plates are created using the robot, they are infested with 220 μL of the liver powder/larval mosquito mixture (about 1 day-old larvae). After plates are infested with mosquito larvae, a non-evaporative lid is used to cover the plate to reduce drying. Plates are held at room temperature for 3 days prior to grading. After 3 days, each well is observed and scored based on mortality.

| Structure (SMILES) | mortality at 50 µg/cm2 [1] [%] | mortality at 50 µg/cm2 [2] [%] | YFM % Control (or Mortality) rating [3] |
| --- | --- | --- | --- |
| O=C(NC(=S)Nc1ccccc1C1CC1)NC1Cc2ccc(-c3ncn(-c4ccc(OC(F)(F)F)cc4)n3)cc2C1 (stereo not drawn) [F11, 1-[(2-Cyclopropylphenyl)carbamothioyl]-3-[5-[1-[4-(trifluoromethoxy)phenyl]-1,2,4-triazol-3-yl]indan-2-yl]urea] | 50 to 100 | 50 to 100 | A (80-100) |
| CC(C)c1ccccc1N1C(=O)CS/C1=N\C(=O)NC1Cc2ccc(-c3ncn(-c4ccc(OC(F)(F)F)cc4)n3)cc2C1 (stereo not drawn) [F16, (Z)-1-(3-(2-Isopropylphenyl)-4-oxothiazolidin-2-ylidene)-3-(5-(1-(4-(trifluoromethoxy)phenyl)-1H-1,2,4-triazol-3-yl)-2,3-dihydro-1H-inden-2-yl)urea] | 50 to 100 | 50 to 100 | A (80-100) |
| Cc1ccc(C(C)C)c(N2C(=O)CS/C2=N\C(=O)NC2CCc3cc(-c4ncn(-c5ccc(OC(F)(F)F)cc5)n4)ccc3C2)c1 (stereo not drawn) [F17, (Z)-1-(3-(2-isopropyl-5-methylphenyl)-4-oxothiazolidin-2-ylidene)-3-(6-(1-(4-(trifluoromethoxy)phenyl)-1H-1,2,4-triazol-3-yl)-1,2,3,4-tetrahydronaphthalen-2-yl)urea] | 50 to 100 | 50 to 100 | A (80-100) |
| Cc1cs/c(=N\C(=O)NC2Cc3ccc(-c4ncn(-c5ccc(OC(F)(F)F)cc5)n4)cc3C2)n1-c1ccccc1C(C)C (stereo not drawn) [FA1, (Z)-1-(3-(2-isopropylphenyl)-4-methylthiazol-2(3H)-ylidene)-3-(5-(1-(4-(trifluoromethoxy)phenyl)-1H-1,2,4-triazol-3-yl)-2,3-dihydro-1H-inden-2-yl)urea] | 50 to 100 | 50 to 100 | A (80-100) |
| CC(C)c1ccccc1N1/C(=N/C(=O)NC2Cc3ccc(-c4ncn(-c5ccc(OC(F)(F)F)cc5)n4)cc3C2)SCC1C (stereo not drawn) [FA3, (Z)-1-(3-(2-isopropylphenyl)-4-methylthiazolidin-2-ylidene)-3-(5-(1-(4-(trifluoromethoxy)phenyl)-1H-1,2,4-triazol-3-yl)-2,3-dihydro-1H-inden-2-yl)urea] | 50 to 100 | 0 | B (More than 0-Less than 80) |
| CC1CS/C(=N\C(=O)NC2Cc3ccc(-c4ncn(-c5ccc(OC(F)(F)F)cc5)n4)cc3C2)N(c2ccccc2C(C)C)C1 (stereo not drawn) [FA5, (Z)-1-(3-(2-Isopropylphenyl)-5-methyl-1,3-thiazinan-2-ylidene)-3-(5-(1-(4-(trifluoromethoxy)phenyl)-1H-1,2,4-triazol-3-yl)-2,3-dihydro-1H-inden-2-yl)urea] | 50 to 100 | 50 to 100 | A (80-100) |
| CC(C)c1ccccc1N1/C(=N/C(=O)NC2Cc3ccc(-c4ncn(-c5ccc(OC(F)(F)F)cc5)n4)cc3C2)SCCC1C (stereo not drawn) [FA6, (Z)-1-(3-(2-Isopropylphenyl)-4-methyl-1,3-thiazinan-2-ylidene)-3-(5-(1-(4-(trifluoromethoxy)phenyl)-1H-1,2,4-triazol-3-yl)-2,3-dihydro-1H-inden-2-yl)urea] | 50 to 100 | 50 to 100 | A (80-100) |
| COc1ccc(NC(=S)NC(=O)NC2Cc3ccc(-c4ncn(-c5ccc(OC(F)(F)F)cc5)n4)cc3C2)c(C)c1 (stereo not drawn) [P1] | 50 to 100 | 50 to 100 | A (80-100) |
| CC(C)c1cc(F)ccc1NC(=S)NC(=O)NC1Cc2ccc(-c3ncn(-c4ccc(OC(F)(F)F)cc4)n3)cc2C1 (stereo not drawn) [P2, 1-[(4-Fluoro-2-isopropyl-phenyl)carbamothioyl]-3-[5-[1-[4-(trifluoromethoxy)phenyl]-1,2,4-triazol-3-yl]indan-2-yl]urea] | 50 to 100 | 50 to 100 | A (80-100) |
| CC(C)c1ccc(Cl)cc1NC(=S)NC(=O)NC1Cc2ccc(-c3ncn(-c4ccc(OC(F)(F)F)cc4)n3)cc2C1 (stereo not drawn) [P3, 1-[(5-Chloro-2-isopropyl-phenyl)carbamothioyl]-3-[5-[1-[4-(trifluoromethoxy)phenyl]-1,2,4-triazol-3-yl]indan-2-yl]urea] | 50 to 100 | 50 to 100 | A (80-100) |
| COc1ccc(C(C)C)c(NC(=S)NC(=O)NC2Cc3ccc(-c4ncn(-c5ccc(OC(F)(F)F)cc5)n4)cc3C2)c1 (stereo not drawn) [P4, 1-[(2-Isopropyl-5-methoxy-phenyl)carbamothioyl]-3-[5-[1-[4-(trifluoromethoxy)phenyl]-1,2,4-triazol-3-yl]indan-2-yl]urea] | 50 to 100 | 50 to 100 | A (80-100) |
| Cc1ccc(NC(=S)NC(=O)NC2Cc3ccc(-c4ncn(-c5ccc(OC(F)(F)F)cc5)n4)cc3C2)c(C(C)C)c1 (stereo not drawn) [P5, 1-[(2-Isopropyl-4-methyl-phenyl)carbamothioyl]-3-[5-[1-[4-(trifluoromethoxy)phenyl]-1,2,4-triazol-3-yl]indan-2-yl]urea] | 50 to 100 | 50 to 100 | A (80-100) |
| COc1ccc(N2C(=O)CS/C2=N\C(=O)NC2Cc3ccc(-c4ncn(-c5ccc(OC(F)(F)F)cc5)n4)cc3C2)c(C)c1 (stereo not drawn) [P6, (Z)-1-(3-(4-methoxy-2-methylphenyl)-4-oxothiazolidin-2-ylidene)-3-(5-(1-(4-(trifluoromethoxy)phenyl)-1H-1,2,4-triazol-3-yl)-2,3-dihydro-1H-inden-2-yl)urea] | 50 to 100 | 50 to 100 | A (80-100) |
| Cc1ccc(N2C(=O)CS/C2=N\C(=O)NC2Cc3ccc(-c4ncn(-c5ccc(OC(F)(F)F)cc5)n4)cc3C2)c(C(C)C)c1 (stereo not drawn) [P7, (Z)-1-(3-(2-Isopropyl-4-methylphenyl)-4-oxothiazolidin-2-ylidene)-3-(5-(1-(4-(trifluoromethoxy)phenyl)-1H-1,2,4-triazol-3-yl)-2,3-dihydro-1H-inden-2-yl)urea] | 50 to 100 | 50 to 100 | A (80-100) |
| CC(C)c1ccc(Cl)cc1N1C(=O)CS/C1=N\C(=O)NC1Cc2ccc(-c3ncn(-c4ccc(OC(F)(F)F)cc4)n3)cc2C1 (stereo not drawn) [P8, (Z)-1-(3-(5-Chloro-2-isopropylphenyl)-4-oxothiazolidin-2-ylidene)-3-(5-(1-(4-(trifluoromethoxy)phenyl)-1H-1,2,4-triazol-3-yl)-2,3-dihydro-1H-inden-2-yl)urea] | 50 to 100 | 50 to 100 | A (80-100) |
| COc1ccc(C(C)C)c(N2C(=O)CS/C2=N\C(=O)NC2Cc3ccc(-c4ncn(-c5ccc(OC(F)(F)F)cc5)n4)cc3C2)c1 (stereo not drawn) [P9, (Z)-1-(3-(2-Isopropyl-5-methoxyphenyl)-4-oxothiazolidin-2-ylidene)-3-(5-(1-(4-(trifluoromethoxy)phenyl)-1H-1,2,4-triazol-3-yl)-2,3-dihydro-1H-inden-2-yl)urea] | 50 to 100 | 50 to 100 | A (80-100) |
